According to paper PMC9598883, “An Optimized Workflow for the Discovery of New Antimicrobial Compounds Targeting Bacterial RNA Polymerase Complex Formation” (Antibiotics, 2022):
Converted amounts (≈) assume the structure as drawn.

Tests used:
B. subtilis WB800N = experiment: MIC assay, B. subtilis; assay type: cell-based, Bacillus subtilis; details: for MIC: Bacillus subtilis, WB800N
Description: (§1) Growth inhibition tests and minimum inhibitory concentration (MIC) assay on the gram-positive B. subtilis WB800N strain (nprE aprE epr bpr mpr::ble nprB::bsr Δvpr wprA::hyg cm::neo; NeoR) (MoBiTec GmbH, Lotzestraße, Göttingen, Germany) and on the gram-negative nonpathogenic E. coli DH10 T1R strain (F-mcrA Δ(mrr-hsdRMS-mcrBC) Φ80lacZ ΔM15 ΔlacX74 recA1 endA1 araD139Δ(ara, leu)7697 galU galK λ-rpsL nupG) (Invitrogen, Waltham, MA, USA) were performed as described in Sartini et al..
(§2) Antimicrobial activity was determined by means of the minimum inhibitory concentration (MIC) assay, according to the Clinical & Laboratory Standards Institute (CLSI) guidelines described in ([37]). The assays were performed in 96-well microplates in 20% MH broth in PBS. A 2.5 × 10^5 CFU/mL medium-phase bacterial suspension in 20% MH broth was used and the microplates were incubated at 37 °C for 24 h. […] The results were derived from at least three independent experiments conducted in duplicate.

[1] = tested on: Saccharomyces cerevisiae (W303); experiment: Yeast growth inhibition assay; assay type: cell-based; details: wild-type W303
Description: (§3) To avoid the characterization of hit compounds lacking antibacterial activity, we subsequently tested the ability of the 18 ELISA-validated compounds to inhibit bacterial growth, using the previously identified indol-3-yl-urea derivative 4 as a reference. Two nonpathogenic bacteria were employed for this assay: the gram-positive B. subtilis (WB800N strain) and the gram-negative E. coli (DH10T1R strain). […] The remaining twelve compounds might have been unable to cross the bacterial membrane or were modified and/or extruded from the cell. […] This additional assay, which was conducted on a wild-type (W303) rather than on the hyperpermeable Δerg6 strain, is not part of our streamlined antibiotic discovery workflow and was only aimed at verifying the cytotoxicity prediction reliability of yBRET.
(§4) For growth inhibition assays, bacteria were grown to exponential phase (OD600 = 0.5–0.6) and then diluted 100-fold with LB. PMBN (2 μg/mL) for E. coli was added at this stage. Yeast strain W303-1A (leu2-3,112 trp1-1 can1-100 ura3-1 ade2-1 his3-11,15) was grown at 30 °C in YPD to an OD600 of 0.5. The growth of the bacterial (or yeast) cells was monitored for 8 h in the presence of the candidate compounds dissolved in DMSO (final concentration of 5%) or an equivalent amount of DMSO as a negative control (“vehicle”). Growth inhibition assays were conducted in triplicate in 96-well plates (Microtest Plate 96 Well, F, flat base, Sarstedt, Nümbrecht, North Rhine-Westphalia, Germany) by monitoring cell growth (OD600) every 30 min with a microplate reader (TriStar^2 LB 942; Berthold Technologies, Bad Wildbad, Baden-Württemberg, Germany) for bacteria and every 1 h for yeast.

[2] = tested on: B. subtilis (WB800N strain); experiment: Bacterial growth inhibition assay, B. subtilis; assay type: cell-based, Bacillus subtilis; details: for inhibition at 100 µM: Bacillus subtilis, 8 h, read-out: Growth Inhibition at 100 μM (8 h) B. subtilis
Description: as §3, §1, §4

E. coli (DH10T1R strain) = experiment: Bacterial growth inhibition assay, E. coli; assay type: cell-based, Escherichia coli; details: for inhibition at 100 µM: 8 h, in the presence of PMBN (2 μg/mL)
Description: as §3, §1, §4

[3] = biological target: T1, β′–σ^70 PPI (GST-β′ aa 1–334 / His-tagged σ^70) (Escherichia coli, UniProt P0A8T7); experiment: Competitive ELISA of β′–σ^70 interaction; assay type: binding, E. coli; details: for IC50: read-out: Binding Inhibition IC50 ± SD; for inhibition at 100 µM: fixed concentration of 100 μM, read-out: β′–σ70 binding inhibition, ELISA 100 μM (percentage inhibition ± SD)
T1 construct: 50 nM GST-β′ (aa 1–334); made in house; host or cells: bacterial expression (pET28-b / pGEX4-T3 vectors)
T1 sequence (P0A8T7 1-334): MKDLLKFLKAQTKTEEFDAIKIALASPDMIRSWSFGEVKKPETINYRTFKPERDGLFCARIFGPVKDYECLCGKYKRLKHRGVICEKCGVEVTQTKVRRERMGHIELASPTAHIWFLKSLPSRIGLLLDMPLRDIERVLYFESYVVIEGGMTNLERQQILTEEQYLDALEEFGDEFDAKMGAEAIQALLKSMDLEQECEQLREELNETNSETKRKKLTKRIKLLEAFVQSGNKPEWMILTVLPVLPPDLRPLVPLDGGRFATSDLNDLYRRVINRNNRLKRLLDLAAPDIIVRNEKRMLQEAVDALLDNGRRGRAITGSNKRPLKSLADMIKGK
Description: In this in vitro set-up, individual candidate molecules (each at 100 µM concentration) were incubated with β’ before the addition of σ^70 and assessment of interaction reconstitution with an antibody directed against the σ^70 fusion tag. Eighteen of the 28 yBRET-positive compounds were thus confirmed as true inhibitors of the β’–σ^70 PPI (i.e., they inhibited the interaction by at least 50%); their structures and percentage inhibition values are reported in Table S1.
The production of recombinant proteins, the standard ELISA, and the “reverse” ELISA were performed following the protocols described in Sartini et al.. The full-length sequence coding for E. coli σ^70 was cloned into a modified pET28-b in-frame with an N-terminal 6xHis tag-sequence and was expressed in LB medium for 3 h at 30 °C following addition of 1 mM isopropyl-β-D-thiogalactopyranoside (IPTG).
The RNAP β’ 1–334 aa. coding sequence was cloned into a modified pGEX4-T3 expression vector (Amersham Biosciences, Amersham, Buckinghamshire, England) and was expressed for 24 h at 20 °C under auto-induction conditions (Auto Induction Medium, AIM-LB broth base; ForMedium™, Swaffham, Norfolk, England). Due to the failure of affinity purification on a glutathione-Sepharose column, the unfractionated whole cell supernatant was used directly as a GST-tagged source for ELISA.
For the standard ELISA, His-tagged- σ^70 was diluted to 250 nM with PBS and 100 μL of the resulting solution was added to the wells of SpectraPlate-96 HB microtitre plates (PerkinElmer, Waltham, MA, USA). After an overnight incubation at 4 °C, the wells were washed with PBS and blocked at room temperature for 2 h with 400 μL of 1% (w/v) BSA dissolved in PBS. Subsequently, 100 μL of supernatant diluted in PBS containing 50 nM GST-β′ (aa 1–334) was incubated for 10 min at 37 °C with 2.5 μL of each compound dissolved in DMSO at different concentrations (or with 2.5 μL of DMSO). The addition first of the polyclonal rabbit anti-GST primary antibody (1:2000 in PBS) (Abcam, Cambridge, Cambridgeshire, England) and after incubation, of the horseradish peroxidase-conjugated goat anti-rabbit secondary antibody diluted 1:20,000 in PBS (Invitrogen™ by Life Technologies™, Carlsbad, CA, USA) allowed the detection of the interaction using the substrate for 2,2’-Azino-bis (3-Ethylbenzthiazoline-6-Sulphonic Acid) peroxidase (ABTS; SeraCare Life Sciences, Milford, MA, USA). The signal resulting from the oxidation of ABTS was determined by measuring the absorbance at 415 nm with a microplate reader (iMark™ Microplate Absorbance Reader; Bio-Rad, Hercules, CA, USA).

E. coli DH10T1R = experiment: MIC assay, E. coli; assay type: cell-based, Escherichia coli; details: in the presence of PMBN (2 μg/mL)
Description: as §1, §2

β′ subunit (RNAP) = tested on: β′ subunit (RNAP); design: method as in PMID 26764017, PMID 23751807; details: cited from earlier work
[4] = biological target: T2, E. coli RNAPc with recombinant σ^70 (holoenzyme) (Escherichia coli, UniProt P0A8T7); experiment: Fluorescence-detected single-round in vitro transcription assay; assay type: biochemical; details: fluorescence-based assay
T2 construct: purchased New England BioLabs
T2 sequence (P0A8T7 whole entry): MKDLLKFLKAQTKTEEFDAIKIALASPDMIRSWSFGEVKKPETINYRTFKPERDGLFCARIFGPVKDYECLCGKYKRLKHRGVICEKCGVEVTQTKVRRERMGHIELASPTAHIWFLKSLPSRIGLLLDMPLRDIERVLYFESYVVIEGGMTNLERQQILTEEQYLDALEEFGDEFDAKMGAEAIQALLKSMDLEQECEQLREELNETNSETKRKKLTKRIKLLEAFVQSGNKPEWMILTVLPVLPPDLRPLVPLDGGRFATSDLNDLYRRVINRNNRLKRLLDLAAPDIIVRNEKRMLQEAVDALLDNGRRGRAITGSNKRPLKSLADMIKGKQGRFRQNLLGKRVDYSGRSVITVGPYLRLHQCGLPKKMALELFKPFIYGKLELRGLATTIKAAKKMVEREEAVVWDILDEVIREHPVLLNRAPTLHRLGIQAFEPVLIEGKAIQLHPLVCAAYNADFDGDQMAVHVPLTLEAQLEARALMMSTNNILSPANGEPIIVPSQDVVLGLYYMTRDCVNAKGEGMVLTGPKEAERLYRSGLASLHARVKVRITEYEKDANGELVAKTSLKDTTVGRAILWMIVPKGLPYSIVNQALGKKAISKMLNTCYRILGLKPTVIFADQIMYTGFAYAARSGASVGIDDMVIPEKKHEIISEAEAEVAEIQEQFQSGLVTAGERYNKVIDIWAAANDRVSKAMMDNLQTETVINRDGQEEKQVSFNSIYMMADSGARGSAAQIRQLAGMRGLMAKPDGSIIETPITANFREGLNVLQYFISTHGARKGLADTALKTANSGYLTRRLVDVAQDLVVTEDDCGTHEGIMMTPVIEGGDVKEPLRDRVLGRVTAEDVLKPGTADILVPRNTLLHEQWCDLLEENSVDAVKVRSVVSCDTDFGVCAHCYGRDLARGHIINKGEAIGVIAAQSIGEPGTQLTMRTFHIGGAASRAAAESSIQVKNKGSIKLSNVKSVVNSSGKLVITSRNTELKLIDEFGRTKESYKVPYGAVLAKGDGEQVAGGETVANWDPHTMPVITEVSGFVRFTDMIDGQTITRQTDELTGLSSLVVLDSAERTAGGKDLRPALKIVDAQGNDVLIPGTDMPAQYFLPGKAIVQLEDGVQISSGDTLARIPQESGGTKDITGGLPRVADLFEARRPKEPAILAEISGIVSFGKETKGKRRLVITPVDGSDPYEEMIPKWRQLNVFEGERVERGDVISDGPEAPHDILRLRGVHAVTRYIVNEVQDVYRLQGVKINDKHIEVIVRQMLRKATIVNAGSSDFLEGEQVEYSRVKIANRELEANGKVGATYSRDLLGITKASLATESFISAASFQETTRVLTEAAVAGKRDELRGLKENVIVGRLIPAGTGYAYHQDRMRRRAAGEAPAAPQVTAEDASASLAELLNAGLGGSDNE
T2 sequence (P0A8V2 whole entry partner): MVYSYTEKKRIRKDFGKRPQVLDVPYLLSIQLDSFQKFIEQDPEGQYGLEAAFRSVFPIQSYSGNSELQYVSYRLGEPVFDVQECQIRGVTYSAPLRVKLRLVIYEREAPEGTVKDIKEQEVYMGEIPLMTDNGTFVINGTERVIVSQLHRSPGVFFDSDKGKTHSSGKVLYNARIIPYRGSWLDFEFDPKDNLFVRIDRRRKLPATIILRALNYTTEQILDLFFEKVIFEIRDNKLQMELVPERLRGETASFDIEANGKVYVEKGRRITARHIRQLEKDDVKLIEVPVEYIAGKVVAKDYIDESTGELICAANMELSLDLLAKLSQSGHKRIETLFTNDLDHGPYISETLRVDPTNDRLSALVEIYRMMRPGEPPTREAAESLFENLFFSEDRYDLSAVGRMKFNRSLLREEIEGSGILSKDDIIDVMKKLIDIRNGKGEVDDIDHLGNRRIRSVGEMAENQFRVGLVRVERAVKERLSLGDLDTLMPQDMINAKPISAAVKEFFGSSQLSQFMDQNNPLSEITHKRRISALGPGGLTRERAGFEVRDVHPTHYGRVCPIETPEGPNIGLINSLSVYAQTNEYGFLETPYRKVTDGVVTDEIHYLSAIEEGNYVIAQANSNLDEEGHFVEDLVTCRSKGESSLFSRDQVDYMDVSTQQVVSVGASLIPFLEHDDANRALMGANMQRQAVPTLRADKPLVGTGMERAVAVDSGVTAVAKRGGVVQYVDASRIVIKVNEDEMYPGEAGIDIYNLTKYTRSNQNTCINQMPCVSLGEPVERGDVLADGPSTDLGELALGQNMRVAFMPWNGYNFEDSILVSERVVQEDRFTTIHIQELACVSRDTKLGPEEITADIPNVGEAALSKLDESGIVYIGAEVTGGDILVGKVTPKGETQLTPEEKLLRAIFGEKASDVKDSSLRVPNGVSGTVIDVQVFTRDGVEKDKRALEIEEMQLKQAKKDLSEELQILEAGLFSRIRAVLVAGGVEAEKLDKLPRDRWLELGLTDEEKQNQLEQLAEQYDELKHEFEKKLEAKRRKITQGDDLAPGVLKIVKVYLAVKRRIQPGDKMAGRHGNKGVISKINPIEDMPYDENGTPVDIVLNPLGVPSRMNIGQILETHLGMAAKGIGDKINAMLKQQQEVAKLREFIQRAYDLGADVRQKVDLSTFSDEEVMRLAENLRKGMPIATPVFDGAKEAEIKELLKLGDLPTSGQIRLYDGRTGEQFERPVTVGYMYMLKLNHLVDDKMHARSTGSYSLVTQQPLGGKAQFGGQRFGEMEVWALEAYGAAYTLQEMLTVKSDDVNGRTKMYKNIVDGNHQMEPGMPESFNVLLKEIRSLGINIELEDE
T2 sequence (P0A7Z4 whole entry partner): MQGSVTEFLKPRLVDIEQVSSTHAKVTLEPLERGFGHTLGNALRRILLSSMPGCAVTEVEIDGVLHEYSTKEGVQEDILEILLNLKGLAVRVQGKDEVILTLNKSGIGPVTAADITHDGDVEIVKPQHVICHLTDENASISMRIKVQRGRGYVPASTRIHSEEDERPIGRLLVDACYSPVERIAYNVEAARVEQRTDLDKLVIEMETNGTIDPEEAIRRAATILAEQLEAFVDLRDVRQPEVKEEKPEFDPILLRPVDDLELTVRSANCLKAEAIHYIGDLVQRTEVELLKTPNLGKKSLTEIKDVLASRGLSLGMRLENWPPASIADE
T2 sequence (P0A800 whole entry partner): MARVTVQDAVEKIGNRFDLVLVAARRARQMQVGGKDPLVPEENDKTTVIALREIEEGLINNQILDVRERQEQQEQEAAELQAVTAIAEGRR
Description: A single-round transcription assay was first performed at a fixed, 100 µM concentration.
A fluorescence-detected RNAP inhibition assay with the profluorescent substrate γ-[2′(2-benzothiazoyl)-6′-hydroxybenzothiazole)-ATP (γ-BBT-ATP, Jena Bioscience, Jena, Thuringia, Germany) was performed to verify the ability of the selected compounds to inhibit the specific transcription activity of bacterial RNA polymerase, using E. coli RNAPc (New England BioLabs, Ipswich, MA, USA) and recombinant His-tagged-σ^70 for holoenzyme reconstitution.
Two nM of a circular DNA template (pDSP) [38] were then added to a final volume of 7 µL and the resulting reaction mixture was incubated at 37 °C for 15 min. The pDSP template is a 6135 bp vector harboring two identical λpR promoters upstream of engineered, cytosine-lacking (C-less) DNA regions. When CTP is omitted from the reaction mixture, transcription reinitiation is prevented, and this allows for the single-round transcription of 24 nt and 70 nt long RNAs. […]
Ten µL of the reaction was transferred to a black 384-well plate (PE384fw_ProxiPlate) and fluorescence emission was read with Spark 10M, Tecan (Männedorf, canton of Zürich, Switzerland) (excitation wavelength 422 nm; emission wavelength 590 nm).

Structure (SMILES)	MIC B. subtilis (B. subtilis WB800N)	MIC (B. subtilis WB800N) [µM]	Growth Inhibition at 100 μM (8 h) S. cerevisiae [1] [%]	inhibition at 100 µM [2] [%]	Duration of antibacterial activity, E. coli (E. coli (DH10T1R strain); 50 µM) [h]	E. coli growth inhibition over time (E. coli (DH10T1R strain); 50 µM)	inhibition at 10 µM (E. coli (DH10T1R strain); Escherichia coli, 10 µM, 8 h observation, with PMBN, read-out: E. coli growth inhibition at lowest concentration) [%]	inhibition at 100 µM (E. coli (DH10T1R strain); Escherichia coli) [%]	IC50 ([3]; dose–response ELISA) [µM]	inhibition at 100 µM [3] [%]	MIC E. coli (E. coli DH10T1R) [µM]	Concentration interfering with in vitro transcription initiation (β′ subunit (RNAP))	B. subtilis growth inhibition over time ([2]; 50 µM)	Duration of antibacterial activity, B. subtilis ([2]; 50 µM) [h]	B. subtilis growth inhibition over time ([2]; only at 100 µM)	Fold less potent than reference compound 4 (binding inhibition IC50) ([3]; dose–response ELISA) [fold]	IC50 [4] [µM]	B. subtilis growth inhibition ([2]; concentrations ≤ 100 µM)	E. coli growth inhibition (E. coli (DH10T1R strain); concentrations ≤ 100 µM)
N#Cc1cc2cnccc2c2[nH]c3ncc(F)cc3c12 [Compound 7]	did not inhibit B. subtilis growth	> 100	7	13	4	almost completely inhibited	38	66	8.56 ± 1.82	86 ± 9	0.78								
COc1cc(OC)c2c(-c3ccc(Cl)cc3)c[nH]c2c1C(=O)NNC(=O)c1c(OC)cc(OC)c2c(-c3ccc(Cl)cc3)c[nH]c12 [GKL003]												nanomolar concentrations							
O=C(CSc1nc2ccccc2[nH]1)c1ccc2[nH]c3ncc(Cl)cc3c2c1 [Compound 19]		100 (≈ 39.3 µg/mL)	0	37				0	40 ± 4.2	94 ± 1	>100		almost completely inhibited	4	significantly inhibited	5	25.7 ± 1.85		
COc1ccc(-c2ccc(-c3oc4cc(OC(C)=O)ccc4c3OC(C)=O)cc2)cc1OC [Compound 9]		> 100	0	24				24	13.9 ± 1.86	100	>100						71 ± 2.46	failed to exert any appreciable inhibitory activity	failed to exert any appreciable inhibitory activity
